Laboratory results: PMC12423301, “Astrocytic monoamine oxidase B (MAOB)–gamma-aminobutyric acid (GABA) axis as a molecular brake on repair following spinal cord injury” (Signal Transduction and Targeted Therapy, 2025)

Experiments:
[1] = Phase 1 clinical trial: treatment-emergent adverse events; type: in vivo, human
Method: Eligibility criteria included healthy adults (aged 19–45) for the SAD and MAD cohorts, and healthy elderly subjects (aged 65–85) for cohort 11. The participants were excluded if they met the following criteria: serum AST or ALT greater than 60 IU/L, total bilirubin greater than 1.8 mg/dL, creatinine phosphokinase (CPK) levels greater than 405 IU/L, creatinine clearance calculated by the Chronic Kidney Disease Epidemiology Collaboration (CKD-EPI) equation less than 60 mL/min/1.73 m². At the time of randomization, all subjects were required to be free from any clinically significant medical conditions. The study was approved by the Seoul National University Hospital institutional review board and conducted in accordance with the Declaration of Helsinki and Good Clinical Practice guidelines.
Subjects who met the eligibility criteria were admitted to the Seoul National University Hospital Clinical Trial Center one day prior to the first dose administration. […] After administration of the last dose, subjects were discharged 72 h later and visited the outpatient clinic for follow-up on three consecutive days. Pharmacokinetics and safety were monitored until the end of the study, lasting up to 18 days after the last dose.
The primary endpoint was the incidence of TEAEs by dose group. […] Those deemed to have a causal relationship with the drug were classified as ADRs. Dose escalation proceeded under blinded conditions, contingent on the absence of dose-limiting toxicity, as reviewed by a safety review committee.

[2] = Safety pharmacology test; conditions: in vivo
Method: Protocol No. NB_KDS_ADP1_21 Confidential administration of the test substance to rats at a dose of 50-200 mg/kg daily for 2 weeks, there were no deaths.
As a result of oral administration to rats at doses of 30, 50, 75 and 100 mg/kg once daily for 4 weeks, […]
testis, epididymis and lungs. Renal epithelial hyperplasia and inflammatory cells infiltration in the renal pelvis observed in the male and female dose groups of 75 mg/kg or more, germ cell degeneration/loss and seminiferous tubules atrophy observed in the male dose groups of 75 mg/kg or more, and vacuole/degeneration of outer medullary tubules and basophilic tubules observed in the female dose groups were judged to be adverse effects due to administration of the test substance. […] Accordingly, in repeated administrations of rats for 4 weeks, the NOAEL(No Observed Adverse Effect Level) was determined to be 50 mg/kg/day for males and 30 mg/kg for females. […]
In a pharmacokinetic study, plasma PK parameters were measured after a single oral administration of […]
a result of measuring excretion into urine, feces, expiration, and bile, 6.9% was excreted in urine and 48.5% in feces, respectively, up to 168 hours after administration. Excretion to air through respiration was about 0.0% until 48 hours after administration, and 44.1% of the administered radioactivity concentration was present in the body (carcass). […]

[3] = tested on: Parkinson’s disease mouse model; conditions: cited from earlier work
[4] = in vivo; conditions: both, cynomolgus monkey, po
[5] = MAD, healthy elderly, Cohort 11, 120 mg, n = 6
[6] = MAD, young healthy adults, Cohort 7, 60 mg, n = 6
[7] = MAD, young healthy adults, Cohort 8, 120 mg, n = 6
[8] = MAD, young healthy adults, Cohort 9, 240 mg, n = 6
[9] = MAD, young healthy adults, Cohort 10, 480 mg, n = 6
[10] = SAD, young healthy adults, Cohort 1, 30 mg, n = 6
[11] = SAD, young healthy adults, Cohort 2, 60 mg, n = 6
[12] = SAD, young healthy adults, Cohort 3, 120 mg, fasting, n = 6
[13] = SAD, young healthy adults, Cohort 3, 120 mg, fed, n = 5
[14] = SAD, young healthy adults, Cohort 4, 240 mg, n = 6
[15] = SAD, young healthy adults, Cohort 5, 480 mg, n = 6
[16] = SAD, young healthy adults, Cohort 6, 960 mg, n = 6

CS(=O)(=O)O.C[C@H](NCc1ccc(-c2ccc(C(F)(F)F)cc2)cc1)C(N)=O [KDS2010, (S)-2-(((4’-Trifluoromethylbiphenyl-4-yl)methyl)amino)propanamide methane-sulfonate]
effect of a high-fat meal on the frequency of TEAEs ([1]; 120 mg): did not affect | TEAE: Abdominal discomfort [1, 5]: 2 (33.3) number of subjects (%) | TEAE: Constipation [1, 5]: 2 (33.3) number of subjects (%) | TEAE: Diarrhea [1, 5]: 2 (33.3) number of subjects (%) | TEAE: Dizziness [1, 5]: 1 (16.7) number of subjects (%) | TEAE: Hematocrit decreased [1, 5]: 2 (33.3) number of subjects (%) | TEAE: Red blood cell count decreased [1, 5]: 1 (16.7) number of subjects (%) | TEAEs: Any [1, 5]: 5 (83.3) number of subjects (%) | TEAEs: Serious [1, 5]: 0 number of subjects (%) | TEAE: Cough [1, 6]: 1 (16.7) number of subjects (%) | TEAE: Rhinorrhoea [1, 6]: 1 (16.7) number of subjects (%) | TEAEs: Any [1, 6]: 2 (33.3) number of subjects (%) | TEAEs: Serious [1, 6]: 0 number of subjects (%) | TEAEs: Any [1, 7]: 0 number of subjects (%) | TEAEs: Serious [1, 7]: 0 number of subjects (%) | TEAE: Hypersomnia [1, 8]: 1 (16.7) number of subjects (%) | TEAEs: Any [1, 8]: 1 (16.7) number of subjects (%) | TEAEs: Serious [1, 8]: 0 number of subjects (%) | TEAE: Conjunctival hyperemia [1, 9]: 1 (16.7) number of subjects (%) | TEAE: Oropharyngeal pain [1, 9]: 1 (16.7) number of subjects (%) | TEAEs: Any [1, 9]: 2 (33.3) number of subjects (%) | TEAEs: Serious [1, 9]: 0 number of subjects (%) | TEAEs: Any [1, 10]: 2 (33.3) number of subjects (%) | TEAEs: Serious [1, 10]: 0 number of subjects (%) | TEAE: Cough [1, 11]: 1 (16.7) number of subjects (%) | TEAE: Oropharyngeal pain [1, 11]: 1 (16.7) number of subjects (%) | TEAEs: Any [1, 11]: 1 (16.7) number of subjects (%) | TEAEs: Serious [1, 11]: 0 number of subjects (%) | TEAE: Neutrophil count increased [1, 12]: 1 (16.7) number of subjects (%) | TEAEs: Any [1, 12]: 3 (50.0) number of subjects (%) | TEAEs: Serious [1, 12]: 0 number of subjects (%) | TEAE: Neutrophil count increased [1, 13]: 2 (40.0) number of subjects (%) | TEAEs: Any [1, 13]: 3 (60.0) number of subjects (%) | TEAEs: Serious [1, 13]: 0 number of subjects (%) | TEAE: Dry eye [1, 14]: 1 (16.7) number of subjects (%) | TEAE: Neutrophil count increased [1, 14]: 1 (16.7) number of subjects (%) | TEAE: Ocular discomfort [1, 14]: 1 (16.7) number of subjects (%) | TEAE: Swelling of the eyelid [1, 14]: 1 (16.7) number of subjects (%) | TEAE: White blood cell count increased [1, 14]: 1 (16.7) number of subjects (%) | TEAEs: Any [1, 14]: 2 (33.3) number of subjects (%) | TEAEs: Serious [1, 14]: 0 number of subjects (%) | TEAE: Nasal congestion [1, 15]: 1 (16.7) number of subjects (%) | TEAE: Rhinorrhoea [1, 15]: 1 (16.7) number of subjects (%) | TEAEs: Any [1, 15]: 2 (33.3) number of subjects (%) | TEAEs: Serious [1, 15]: 0 number of subjects (%) | TEAE: Conjunctival hyperemia [1, 16]: 1 (16.7) number of subjects (%) | TEAE: Dizziness [1, 16]: 1 (16.7) number of subjects (%) | TEAE: Dry eye [1, 16]: 1 (16.7) number of subjects (%) | TEAE: Nasal congestion [1, 16]: 2 (33.3) number of subjects (%) | TEAE: Rhinorrhoea [1, 16]: 1 (16.7) number of subjects (%) | TEAE: Somnolence [1, 16]: 2 (33.3) number of subjects (%) | TEAEs: Any [1, 16]: 4 (66.7) number of subjects (%) | TEAEs: Serious [1, 16]: 0 number of subjects (%) | number of TEAEs ([1]; all subjects on KDS2010): 56 TEAEs | number of subjects with TEAEs ([1]; all subjects on KDS2010): 25 subjects | proportion of subjects with TEAEs ([1]; all subjects on KDS2010): 37.9% | autonomic nervous system TEAEs ([1]; higher doses (240–960 mg)): TEAEs related to the autonomic nervous system were observed | incidence of TEAEs vs dose ([1]; phase 1): tended to increase with dose | serious adverse events ([1]; phase 1, all cohorts): no serious adverse events | effects on central nervous system, respiratory system, and cardiovascular system [2]: no effect | motor impairment [3]: reverse | NOAEL at 4 weeks [4]: 40 mg/kg
